According to patent EP0226513A1, “Peptides capable of inhibiting interactions between antigens and lymphocytes T4, products derived therefrom and their applications” (INSTITUT PASTEUR, priority 1985, dated 1987):
Where no end group is shown, it is not given here.

How the values were obtained:
[1] = test system: interactions entre les macrophages et les lymphocytes auxiliaires (lymphocytes T4) et entre les lymphocytes T4 et les lymphocytes B; experiment: In vitro cell interaction tests in the system of FISHER et al (influenza virus); format: cell-based; details: individually or in synergy tests
lymphocytes T = experiment: T-lymphocyte proliferation test induced by influenza virus A/Bangkok, fresh cells (tritiated thymidine incorporation); format: cell-based, humain; details: result in words
[2] = test system: lymphocytes T, lymphocytes B, monocytes; format: cell-based, humain; details: result in words; b210: peptides of different length compared, 0,1-10 µg/ml
lymphocytes T, monocytes = experiment: Proliferation after separate preincubation of purified T lymphocytes and monocytes with peptides or antibodies (synergy of inhibition); format: cell-based, humain; details: T lymphocytes preincubated with the labelled substance, monocytes preincubated with "T₄-12"; sub-inhibitory concentrations
Protocol: Les monocytes sont obtenus après adhérence des cellules mononucléées (10⁷ /ml) sur boîte de Pétri (Corning) pendant une heure à 37°C. Ces boîtes de Pétri ont été préalablement incubées à 4°C avec du SVF décomplémenté, durant la nuit. Après avoir récupéré les cellules non adhérentes, les cellules adhérentes sont dé-tachées avec un barreau caoutchouté (rubber policeman) et par un pipettage vigoureux. Après deux lavages, elles sont irradiées à 4000 rads (IBL 137, source CS-137, CEA).
Les monocytes restants sont séparés des cellules non adhérentes par un traitement à la L-méthylleucine ester (5.10⁶ /ml, 5 mM final, Sigma) 40 minutes à tempé-rature ambiante (18). La réaction est arrêtée par addition de sérum AB humain (10 % final et lavages à froid).
Les lymphocytes T et B sont séparés par la technique des rosettes E. Les cellules T étant capables de former des rosettes en présence de globules rouges de mouton sensibilisés à la neuraminidase, après une incubation d'une heure à 0°C. Les cellules formant rosettes (E⁺) seront séparées des cellules ne formant pas rosettes (E⁻ ou B) par sédimentation sur gradient Ficoll-Hypaque. Les globules rouges de mouton sont lysés par choc hypotonique.
d'incubation des populations lymphoïdes purifiées avec les peptides ou des anticorps monoclonaux spécifiques des molé-cules T₄ et HLA-DR ont été effectuées. […]

LRFDSD [XIV, H₂N―――LRFDSD―――OH]
capacité d'inhiber in vitro les interactions entre les macrophages et les lymphocytes T4 et entre les lymphocytes T4 et les lymphocytes B [1]: capables

CC(C)[C@H](N)C(=O)N[C@@H](CCCNC(=N)N)C(=O)N[C@@H](Cc1ccccc1)C(=O)N[C@@H](CC(=O)O)C(=O)N[C@@H](CO)C(=O)N[C@@H](CC(=O)O)C(=O)O [XIII, H₂N-VRFDSD-OH]
capacité d'inhiber in vitro les interactions entre les macrophages et les lymphocytes T4 et entre les lymphocytes T4 et les lymphocytes B [1]: capables

LRFDSDL [DR-7, H₂N-LRFDSDL-OH]
inhibition de la prolifération spécifique du virus influenza des lymphocytes T (lymphocytes T): intermédiaires
inhibition de la production d'anticorps anti-influenza [2]: puis and intermédiaires
synergie d'inhibition de la prolifération (lymphocytes T, monocytes): intermédiaire
